# Assay results from patent publication US20250144067A1, “PERSONALIZED STARVATION THERAPY FOR CANCER” (Faeth Therapeutics, Inc., priority 2021, published 2025).
# Structures can show the parent of a compound that is named as a salt.
# Test system: NCI-H292 lung cancer cells
# Test: FDA drug screening, complete media vs cholesterol-free media with simvastatin (TABLE 2)
# Type: cell-based, human
# Conditions: NCI-H292 cells, FDA library drug in cholesterol-free media with simvastatin 0.04 μM
row,SMILES,Cholesterol-free media + simvastatin (0.04 μM)
1,COCCCOc1cc(C[C@@H](C[C@H](N)[C@@H](O)C[C@H](C(=O)NCC(C)(C)C(N)=O)C(C)C)C(C)C)ccc1OC [Aliskiren],1.326
2,NC(=O)NC1NC(=O)NC1=O (stereo not drawn) [Allantoin],1.146
3,C[C@H]1CN(C[C@H](Cc2ccccc2)C(=O)NCC(=O)O)CC[C@@]1(C)c1cccc(O)c1 [Alvimopan (dihydrate)],1.255

# Same assay, conditions: NCI-H292 cells, FDA library drug in complete media
row,SMILES,Complete Media
1,COCCCOc1cc(C[C@@H](C[C@H](N)[C@@H](O)C[C@H](C(=O)NCC(C)(C)C(N)=O)C(C)C)C(C)C)ccc1OC [Aliskiren],0.8268
2,NC(=O)NC1NC(=O)NC1=O (stereo not drawn) [Allantoin],0.6387
3,C[C@H]1CN(C[C@H](Cc2ccccc2)C(=O)NCC(=O)O)CC[C@@]1(C)c1cccc(O)c1 [Alvimopan (dihydrate)],0.9864

# Same assay, conditions: NCI-H292 cells, cholesterol-free media with simvastatin 0.04 μM; FDA drug library screen (TABLE 2)
row,SMILES,Cholesterol-free media + simvastatin (0.04 μM)
1,Cc1nc(NC(=O)N2CCC[C@H]2C(N)=O)sc1-c1ccnc(C(C)(C)C(F)(F)F)c1 [Alpelisib],0.5514
2,Nc1c(Br)cc(Br)cc1CN[C@H]1CC[C@H](O)CC1 [Ambroxol (hydrochloride)],1.005
3,Nc1c(CC(=O)O)cccc1C(=O)c1ccccc1 [Amfenac (Sodium Hydrate)],0.8959
4,NCCCNCCSP(=O)(O)O [Amifostine],0.9829

# Same assay, conditions: NCI-H292 cells, cholesterol-free media with simvastatin 0.04 μM; […]
row,SMILES,Cholesterol-free media + simvastatin (0.04 μM)
1,C=CC[C@]1(O)CC[C@H]2[C@@H]3CCC4=CCCC[C@@H]4[C@H]3CC[C@@]21C [Allylestrenol],1.288

# Same assay, conditions: NCI-H292 cells, cholesterol-free media with simvastatin 0.04 μM; cell growth value in FDA drug screen
row,SMILES,Cholesterol-free media + simvastatin (0.04 μM)
1,NCCCC(O)(P(=O)(O)O)P(=O)(O)O [Alendronic acid],0.8926
2,C=CCN1CCCC1CNC(=O)c1cc2[nH]nnc2cc1OC (stereo not drawn) [Alizapride hydrochloride],1.019
3,Oc1ncnc2[nH]ncc12 [Allopurinol],0.8896
4,C=CC(=O)Nc1cc(Nc2nccc(-c3cn(C4CC4)c4ccccc34)n2)c(OC)cc1N(C)CCN(C)C [Almonertinib (hydrochloride)],0.6861

# Same assay, conditions: NCI-H292 cells, complete media; FDA drug library screen (TABLE 2)
row,SMILES,Complete Media
1,Cc1nc(NC(=O)N2CCC[C@H]2C(N)=O)sc1-c1ccnc(C(C)(C)C(F)(F)F)c1 [Alpelisib],0.5502
2,Nc1c(Br)cc(Br)cc1CN[C@H]1CC[C@H](O)CC1 [Ambroxol (hydrochloride)],0.9822
3,Nc1c(CC(=O)O)cccc1C(=O)c1ccccc1 [Amfenac (Sodium Hydrate)],0.8462
4,NCCCNCCSP(=O)(O)O [Amifostine],0.9429

# Same assay, conditions: NCI-H292 cells, complete media; […]
row,SMILES,Complete Media
1,C=CC[C@]1(O)CC[C@H]2[C@@H]3CCC4=CCCC[C@@H]4[C@H]3CC[C@@]21C [Allylestrenol],1.384

# Same assay, conditions: NCI-H292 cells, complete media; cell growth value in FDA drug screen
row,SMILES,Complete Media
1,NCCCC(O)(P(=O)(O)O)P(=O)(O)O [Alendronic acid],0.9547
2,C=CCN1CCCC1CNC(=O)c1cc2[nH]nnc2cc1OC (stereo not drawn) [Alizapride hydrochloride],1.057
3,Oc1ncnc2[nH]ncc12 [Allopurinol],0.9734
4,C=CC(=O)Nc1cc(Nc2nccc(-c3cn(C4CC4)c4ccccc34)n2)c(OC)cc1N(C)CCN(C)C [Almonertinib (hydrochloride)],0.7198

# Same assay, conditions: NCI-H292 cells, drug in cholesterol-free media with simvastatin 0.04 μM
row,SMILES,Cholesterol-free media + simvastatin (0.04 μM)
1,CN(C)c1nc(N(C)C)nc(N(C)C)n1 [Altretamine],1.135
2,NC12CC3CC(CC(C3)C1)C2 [Amantadine (hydrochloride)],1.14
3,Nc1ccncc1N [Amifampridine],1.299

# Same assay, conditions: NCI-H292 cells, drug in complete media
row,SMILES,Complete Media
1,CN(C)c1nc(N(C)C)nc(N(C)C)n1 [Altretamine],0.9636
2,NC12CC3CC(CC(C3)C1)C2 [Amantadine (hydrochloride)],0.9614
3,Nc1ccncc1N [Amifampridine],1.071

# Same assay, conditions: complete media minus cholesterol-free media + simvastatin (0.04 μM); >0 enhanced anti-cancer activity, about 0 neutral, <0 antagonist
row,SMILES,Difference
1,Cc1nc(NC(=O)N2CCC[C@H]2C(N)=O)sc1-c1ccnc(C(C)(C)C(F)(F)F)c1 [Alpelisib],0.00
2,Nc1c(Br)cc(Br)cc1CN[C@H]1CC[C@H](O)CC1 [Ambroxol (hydrochloride)],−0.02
3,Nc1c(CC(=O)O)cccc1C(=O)c1ccccc1 [Amfenac (Sodium Hydrate)],−0.05
4,NCCCNCCSP(=O)(O)O [Amifostine],−0.04

# Same assay, conditions: complete media minus cholesterol-free media + simvastatin; >0 enhanced anti-cancer activity, about 0 neutral, <0 antagonist
row,SMILES,Difference
1,NCCCC(O)(P(=O)(O)O)P(=O)(O)O [Alendronic acid],0.06
2,C=CCN1CCCC1CNC(=O)c1cc2[nH]nnc2cc1OC (stereo not drawn) [Alizapride hydrochloride],0.04
3,Oc1ncnc2[nH]ncc12 [Allopurinol],0.08
4,C=CC(=O)Nc1cc(Nc2nccc(-c3cn(C4CC4)c4ccccc34)n2)c(OC)cc1N(C)CCN(C)C [Almonertinib (hydrochloride)],0.03

# Same assay, conditions: complete media minus cholesterol-free media + simvastatin; […]
row,SMILES,Difference
1,C=CC[C@]1(O)CC[C@H]2[C@@H]3CCC4=CCCC[C@@H]4[C@H]3CC[C@@]21C [Allylestrenol],0.10

# Same assay, conditions: complete media vs cholesterol-free media + simvastatin (0.04 μM); >0 enhanced anti-cancer activity, about 0 neutral, <0 antagonist
row,SMILES,Difference
1,COCCCOc1cc(C[C@@H](C[C@H](N)[C@@H](O)C[C@H](C(=O)NCC(C)(C)C(N)=O)C(C)C)C(C)C)ccc1OC [Aliskiren],−0.50
2,NC(=O)NC1NC(=O)NC1=O (stereo not drawn) [Allantoin],−0.51
3,CN(C)c1nc(N(C)C)nc(N(C)C)n1 [Altretamine],−0.17
4,C[C@H]1CN(C[C@H](Cc2ccccc2)C(=O)NCC(=O)O)CC[C@@]1(C)c1cccc(O)c1 [Alvimopan (dihydrate)],−0.27
5,Nc1ccncc1N [Amifampridine],−0.23

# Same assay, conditions: complete media vs cholesterol-free media + simvastatin (0.04 μM); […]
row,SMILES,Difference
1,NC12CC3CC(CC(C3)C1)C2 [Amantadine (hydrochloride)],−0.18

# Test system: NCI-H292 lung cancer cells
# Test: FDA drug screening, complete media vs cholesterol-free media without statin (TABLE 1)
# Type: cell-based, human
# Conditions: Complete minus Cholesterol-free; >0 enhanced anti-cancer activity, about 0 neutral, <0 antagonist
row,SMILES,Difference
1,Oc1ncnc2[nH]ncc12 [Allopurinol],−0.29
2,C=CC(=O)Nc1cc(Nc2nccc(-c3cn(C4CC4)c4ccccc34)n2)c(OC)cc1N(C)CCN(C)C [Almonertinib (hydrochloride)],−0.07
3,Cc1nc(NC(=O)N2CCC[C@H]2C(N)=O)sc1-c1ccnc(C(C)(C)C(F)(F)F)c1 [Alpelisib],0.04
4,CN(C)c1nc(N(C)C)nc(N(C)C)n1 [Altretamine],−0.04

# Same assay, conditions: Complete minus Cholesterol-free; […]
row,SMILES,Difference
1,C=CC[C@]1(O)CC[C@H]2[C@@H]3CCC4=CCCC[C@@H]4[C@H]3CC[C@@]21C [Allylestrenol],−0.56

# Same assay, conditions: Complete minus Cholesterol-free; greater than 0 enhanced anti-cancer activity, about 0 neutral, below 0 antagonist
row,SMILES,Difference
1,NC(=O)NC1NC(=O)NC1=O (stereo not drawn) [Allantoin],−0.09
2,NCCCNCCSP(=O)(O)O [Amifostine],−0.17

# Same assay, conditions: Complete minus Cholesterol-free; greater than 0 enhanced anti-cancer activity, about 0 neutral, below 0 antagonists
row,SMILES,Difference
1,COCCCOc1cc(C[C@@H](C[C@H](N)[C@@H](O)C[C@H](C(=O)NCC(C)(C)C(N)=O)C(C)C)C(C)C)ccc1OC [Aliskiren],−0.67
2,C[C@H]1CN(C[C@H](Cc2ccccc2)C(=O)NCC(=O)O)CC[C@@]1(C)c1cccc(O)c1 [Alvimopan (dihydrate)],−1.02

# Same assay, conditions: NCI-H292 cells in cholesterol-free media without statin
row,SMILES,Cholesterol-free
1,COCCCOc1cc(C[C@@H](C[C@H](N)[C@@H](O)C[C@H](C(=O)NCC(C)(C)C(N)=O)C(C)C)C(C)C)ccc1OC [Aliskiren],1.754
2,C=CC[C@]1(O)CC[C@H]2[C@@H]3CCC4=CCCC[C@@H]4[C@H]3CC[C@@]21C [Allylestrenol],1.739
3,C[C@H]1CN(C[C@H](Cc2ccccc2)C(=O)NCC(=O)O)CC[C@@]1(C)c1cccc(O)c1 [Alvimopan (dihydrate)],1.958

# Same assay, conditions: NCI-H292 cells in complete media
row,SMILES,Complete
1,COCCCOc1cc(C[C@@H](C[C@H](N)[C@@H](O)C[C@H](C(=O)NCC(C)(C)C(N)=O)C(C)C)C(C)C)ccc1OC [Aliskiren],1.084
2,C=CC[C@]1(O)CC[C@H]2[C@@H]3CCC4=CCCC[C@@H]4[C@H]3CC[C@@]21C [Allylestrenol],1.181
3,C[C@H]1CN(C[C@H](Cc2ccccc2)C(=O)NCC(=O)O)CC[C@@]1(C)c1cccc(O)c1 [Alvimopan (dihydrate)],0.9383

# Same assay, conditions: NCI-H292 cells, FDA drug library screen, cholesterol-free media without statin
row,SMILES,Cholesterol-free
1,NC(=O)NC1NC(=O)NC1=O (stereo not drawn) [Allantoin],0.5704
2,NCCCNCCSP(=O)(O)O [Amifostine],1.387

# Same assay, conditions: NCI-H292 cells, FDA drug library screen, complete media
row,SMILES,Complete
1,NC(=O)NC1NC(=O)NC1=O (stereo not drawn) [Allantoin],0.4823
2,NCCCNCCSP(=O)(O)O [Amifostine],1.213

# Same assay, conditions: NCI-H292 cells, cholesterol-free media without statin
row,SMILES,Cholesterol-free
1,NCCCC(O)(P(=O)(O)O)P(=O)(O)O [Alendronic acid],1.207
2,C=CCN1CCCC1CNC(=O)c1cc2[nH]nnc2cc1OC (stereo not drawn) [Alizapride hydrochloride],1.222
3,Oc1ncnc2[nH]ncc12 [Allopurinol],1.198
4,Nc1c(Br)cc(Br)cc1CN[C@H]1CC[C@H](O)CC1 [Ambroxol (hydrochloride)],1.285
5,Nc1ccncc1N [Amifampridine],1.476

# Same assay, conditions: NCI-H292 cells, cholesterol-free media without statin, FDA drug library screen
row,SMILES,Cholesterol-free
1,C=CC(=O)Nc1cc(Nc2nccc(-c3cn(C4CC4)c4ccccc34)n2)c(OC)cc1N(C)CCN(C)C [Almonertinib (hydrochloride)],0.4284
2,Cc1nc(NC(=O)N2CCC[C@H]2C(N)=O)sc1-c1ccnc(C(C)(C)C(F)(F)F)c1 [Alpelisib],0.497
3,CN(C)c1nc(N(C)C)nc(N(C)C)n1 [Altretamine],0.9853
4,NC12CC3CC(CC(C3)C1)C2 [Amantadine (hydrochloride)],0.9565
5,Nc1c(CC(=O)O)cccc1C(=O)c1ccccc1 [Amfenac (Sodium Hydrate)],1.155

# Same assay, conditions: NCI-H292 cells, complete media
row,SMILES,Complete
1,NCCCC(O)(P(=O)(O)O)P(=O)(O)O [Alendronic acid],0.7802
2,C=CCN1CCCC1CNC(=O)c1cc2[nH]nnc2cc1OC (stereo not drawn) [Alizapride hydrochloride],0.9062
3,Oc1ncnc2[nH]ncc12 [Allopurinol],0.9095
4,Nc1c(Br)cc(Br)cc1CN[C@H]1CC[C@H](O)CC1 [Ambroxol (hydrochloride)],0.8347
5,Nc1ccncc1N [Amifampridine],1.141

# Same assay, conditions: NCI-H292 cells, complete media, FDA drug library screen
row,SMILES,Complete
1,C=CC(=O)Nc1cc(Nc2nccc(-c3cn(C4CC4)c4ccccc34)n2)c(OC)cc1N(C)CCN(C)C [Almonertinib (hydrochloride)],0.3618
2,Cc1nc(NC(=O)N2CCC[C@H]2C(N)=O)sc1-c1ccnc(C(C)(C)C(F)(F)F)c1 [Alpelisib],0.5335
3,CN(C)c1nc(N(C)C)nc(N(C)C)n1 [Altretamine],0.9434
4,NC12CC3CC(CC(C3)C1)C2 [Amantadine (hydrochloride)],1.419
5,Nc1c(CC(=O)O)cccc1C(=O)c1ccccc1 [Amfenac (Sodium Hydrate)],1.799

# Same assay, conditions: complete vs cholesterol-free media; >0 enhanced anti-cancer activity, about 0 neutral, <0 antagonist
row,SMILES,Difference
1,Nc1c(CC(=O)O)cccc1C(=O)c1ccccc1 [Amfenac (Sodium Hydrate)],0.64

# Same assay, conditions: complete vs cholesterol-free media; […]
row,SMILES,Difference
1,NC12CC3CC(CC(C3)C1)C2 [Amantadine (hydrochloride)],0.46

# Same assay, conditions: complete vs cholesterol-free media; greater than 0 enhanced anti-cancer activity, about 0 neutral, below 0 antagonists
row,SMILES,Difference
1,NCCCC(O)(P(=O)(O)O)P(=O)(O)O [Alendronic acid],−0.43
2,C=CCN1CCCC1CNC(=O)c1cc2[nH]nnc2cc1OC (stereo not drawn) [Alizapride hydrochloride],−0.32
3,Nc1c(Br)cc(Br)cc1CN[C@H]1CC[C@H](O)CC1 [Ambroxol (hydrochloride)],−0.45
4,Nc1ccncc1N [Amifampridine],−0.33
